Series [1] can be described thus: Toxicity against mouse RAW264.7 cells assessed as cell survival at 50 uM by SRB assay. The series is classed as cell-based. Particulars: read-out: Survival. (In general: In SRB staining, fixed cells bind dye roughly in proportion to their protein.)
Series [2] in a line: Toxicity against HEK293 cells assessed as cell survival at 50 uM. It counts as cell-based. Particulars: human, read-out: Survival.
Series [3] deals with HEK293. Description: Inhibition of TNFalpha-activated nuclear factor-kappa B activity (unknown origin) expressed in HEK293 cells at 50 uM incubated for 6 hrs by luciferase reporter gene based assay. The series is classed as cell-based. Particulars: Homo sapiens. A general note: Reporter assays use an easily measured gene product as a stand-in for the process of interest.
Series [4] deals with RAW264.7. In words: Inhibition of lipopolysaccharide-induced nitric oxide production in mouse RAW264.7 cells at 50 uM pre-incubated for 30 mins before LPS stimulation for 20 hrs by Griess reagent based assay. It counts as functional. A general note: Nitrite, measured by Griess reagent, commonly stands in for NO production.
Series [5] in a line: Inhibition of TNFalpha-activated nuclear factor-kappa B activity (unknown origin) expressed in HEK293 cells incubated for 6 hrs by luciferase reporter gene based assay. It counts as cell-based. Conditions: Homo sapiens, HEK293, 6 h.
For series [6], the system named is RAW264.7. Description: Inhibition of lipopolysaccharide-induced nitric oxide production in mouse RAW264.7 cells pre-incubated for 30 mins before LPS stimulation for 20 hrs by Griess reagent based assay. It counts as functional, cell-based.

These results are taken from ChEMBL document CHEMBL3797040, “Withanolides derived from Physalis peruviana (Poha) with potential anti-inflammatory activity” (Bioorg Med Chem Lett, 2016).

Molecules are shown by their SMILES.

For orientation: inhibition means the relative decrease from the control value, in per cent. A higher inhibition goes with strong suppression. A word on the IC50: it is the midpoint of a concentration-inhibition curve. A low value points to greater potency in that assay. Take `CC1=C(C)C(=O)O[C@@H]([C@@](C)(O)[C@]2(O)CC[C@@]3(O)[C@@H]4C[C@@H](O)[C@@]5(O)CC=CC(=O)[C@]5(C)[C@H]4CC[C@]23C)C1`: the viability at 50 µM was found to be 84.1% in series [1] and 89.6% in series [2]. In series [3], this compound yielded an inhibition of 65.8%. For the same compound, in series [4], testing at 50 µM gave an inhibition of 26.4%. In series [5], this compound displayed an IC50 of 31.2 µM.

Regarding `CC1=C(C)C(=O)O[C@@H]([C@](C)(O)[C@]2(O)CC[C@@]3(O)[C@@H]4C[C@H]5O[C@]56[C@@H](O)C=CC(=O)[C@]6(C)[C@H]4CC[C@]23C)C1`, the viability at 50 µM in series [1] worked out at 50.1%; in series [2], 88.6%. Moreover, the IC50 in series [6] was 0.32 µM; in series [5] it was 0.04 µM. For the same compound, the inhibition in series [3] is 99.5%. For the same compound, the inhibition at 50 µM in series [4] came out at 99.4%.

Turning to `CC1=C(C)C(=O)O[C@@H]([C@](C)(O)[C@]2(O)C[C@H](O)[C@@]3(O)[C@@H]4C[C@H](O)[C@@]5(O)CCCC(=O)[C@]5(C)[C@H]4CC[C@@]32C)C1`, the viability at 50 µM in series [1] is 100%; in series [2] it was 83.9%. Further, in series [3], the inhibition came out at 60.4%. In series [4], this compound had an inhibition at 50 µM of 47.7%. Besides, in series [5], the IC50 amounted to 10.4 µM.

In the case of `CC1=C(CO)C[C@H]([C@](C)(O)[C@]2(O)CC[C@@]3(O)[C@@H]4C[C@@H](O)[C@@]5(O)CC=CC(=O)[C@]5(C)[C@H]4CC[C@]23C)OC1=O`, the viability at 50 µM is 100% in series [1] and 81.6% in series [2]. This compound registered an inhibition in series [3] of 41%. The compound further registered an inhibition at 50 µM in series [4] of 7.4%.

The compound `CNC(=N)NCCC[C@H](N)C(=O)O` [TILARGININE] displayed an IC50 in series [6] of 23.5 µM.

On to `CC1=C(C)C(=O)O[C@@H]([C@](C)(O)C2=CC[C@@]3(O)[C@@H]4C[C@H]5O[C@]56[C@@H](O)CCC(=O)[C@]6(C)[C@H]4CC[C@]23C)C1`, for which the viability at 50 µM is 100% in series [1] and 81.9% in series [2]. This compound also had an IC50 in series [6] of 14.6 µM. The compound further showed an inhibition in series [3] of 43.7%. In series [4], this compound had an inhibition at 50 µM of 64.7%.

On to `CC(=O)OC1C[C@H](O)CC2=CC[C@H]3[C@@H]4CC[C@H]([C@@](C)(O)[C@@H](O)C[C@@H]5COC(=O)[C@@]5(C)O)[C@@]4(C)CC[C@@H]3[C@]21C` (some centres undefined), for which the values for the viability at 50 µM in series [1] and in series [2] were 100% and 73.3%, respectively. Moreover, the inhibition in series [3] stood at 64.4%. The same compound gave an inhibition at 50 µM in series [4] of 3.7%. This compound returned an IC50 in series [5] of 2.1 µM.

With `CC1=C(C)C(=O)O[C@@H]([C@](C)(O)[C@]2(O)CC[C@@]3(O)[C@@H]4[C@@H](O)[C@@H](O)[C@@]5(O)CC=CC(=O)[C@]5(C)[C@H]4CC[C@]23C)C1`, the viability at 50 µM is 90.4% in series [1] and 98.4% in series [2]. For the same compound, the IC50 was found to be 44.6 µM in series [6] and 24.6 µM in series [5]. Moreover, in series [3], the inhibition was 66.9%. This compound had an inhibition at 50 µM in series [4] of 58.3%.

In the case of `CC1=C(C)C(=O)O[C@@H]([C@](C)(O)[C@]2(O)CC[C@@]3(O)[C@@H]4C[C@H](O)C5=CC=CC(=O)[C@]5(C)[C@H]4CC[C@]23C)C1`, the viability at 50 µM in series [1] amounted to 79.3%; in series [2] it was 100%. Also, the results for the IC50 in series [6] and in series [5] were 2.4 µM and 5.6 µM, respectively. Besides, the inhibition in series [3] amounted to 85%. The inhibition at 50 µM in series [4] is 99.2%.

For `CC(=O)OC1C[C@H](O)CC2=CC[C@H]3[C@@H]4CC[C@H]([C@@](C)(O)[C@@H](O)C[C@@H]5COC(=O)[C@@H]5C)[C@@]4(C)CC[C@@H]3[C@]21C` (some centres undefined), the figures for the viability at 50 µM in series [1] and in series [2] were 95.3% and 36.5%, respectively. For the same compound, the IC50 in series [6] was found to be 11.8 µM; in series [5], 1.1 µM. In series [3], this compound displayed an inhibition of 56.1%. Moreover, the inhibition at 50 µM in series [4] was 84.2%.

As to `CC1=C(C)C(=O)O[C@@H]([C@](C)(O)[C@]2(O)CC[C@@]3(O)[C@@H]4C[C@H]5O[C@]56[C@@H](O)[C@@H](O)CC(=O)[C@]6(C)[C@H]4CC[C@]23C)C1`, the viability at 50 µM in series [1] was 100%; in series [2], 97.1%. For the same compound, in series [6], half-maximal inhibition (IC50) was put at 7.8 µM. In series [3], this compound gave an inhibition of 54.1%. The compound further came in with an inhibition at 50 µM in series [4] of 86%.
